Key:
human NK3 receptor [1] = biological target: T1, human NK3 receptor (Homo sapiens, UniProt P29371); assay: NK3 receptor binding assay (SPA-based competition binding with 125I-NKB, membranes of BHK cells); settings: table of Example 10; affinity obtained as described in Example 9; read-out: Affinity Ki
T1 construct: expressed in transfected cells; membranes prepared from them
T1 sequence (P29371 1-465): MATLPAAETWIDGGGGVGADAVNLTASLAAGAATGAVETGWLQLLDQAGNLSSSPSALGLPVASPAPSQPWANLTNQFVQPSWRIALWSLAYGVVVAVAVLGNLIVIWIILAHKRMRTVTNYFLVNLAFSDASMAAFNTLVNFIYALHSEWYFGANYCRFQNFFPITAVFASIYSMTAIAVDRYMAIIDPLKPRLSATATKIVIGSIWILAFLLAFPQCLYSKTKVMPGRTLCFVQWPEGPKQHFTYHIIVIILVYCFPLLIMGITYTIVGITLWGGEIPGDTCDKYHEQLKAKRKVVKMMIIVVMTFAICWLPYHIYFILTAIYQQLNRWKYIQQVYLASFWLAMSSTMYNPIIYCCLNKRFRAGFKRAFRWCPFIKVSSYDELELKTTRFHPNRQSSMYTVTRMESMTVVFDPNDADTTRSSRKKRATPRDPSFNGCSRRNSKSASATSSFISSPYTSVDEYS
Description: Membranepreparation: BHK cells stably expressing the human NK3 receptor were seeded in harvesting plates in Dulbeccos MEM containing GlutaMax (862 mg/l), 1 mM sodium pyruvate, 10% fetal calf serum, 1% Pen/Strep, I mg/ml G418 and were grown at 34 °C in a humidified atmosphere containing 10% CO2. To increase receptor expression, 10 µM trichotatin A was added to the media 24 hours before harvest of the cells at a confluency of app 90%. Prior to the harvesting, the cells were washed twice with PBS without Mg^2+ og Ca^2+ and subsequently scrapped of in 10 ml PBS pr harvesting plate. The cells suspension were centrifuged at 1500xG in three minutes before resuspension in 15 mM Tris-HCl pH 7,5 buffer containing 2 mM MgCl2; 0,3 mM EDTA and 1 mM EGTA (buffer A). The cell suspention was homogenised and subsequently centrifuged at 40000xG in 30 minutes. The membrane-pellet was resuspended in buffer A containing 250 mM sucrose, alliquoted and stored at - 80°C.
Affinity assay description: The assay was performed as a SPA-based competition-binding assay in a 50 mM Tris pH 7.4 assay buffer containing 120 mM NaCl, 3 mM MnCl2, 40 µg/ml bacitracin, 2 µg/ml Chymostatin, 1 µg/ml Phosphoramidon and 4 µg/ml Leupeptin. App 0.02 nM ^125I-NKB was mixed with test compounds before addition of 4 µg of the homogenised NK3 membrane preparation and 0,025 mg SPA beads in a total volume of 60 µl. The assay plate was subsequently under agitation incubated for 90 min at RT. The plate was centrifugated 10 minutes at 500xG and counted in a topcounter 5 minuttes pr well.
The non-specific binding constituted app 5 % of the total binding.
Data points were expressed in percent of the specific binding of ^125I-NKB and the IC50 values (concentration causing 50 percent inhibition of ^125I-NKB specific binding) were determined by non-linear regression analysis using a sigmoidal variable slope curve fitting. The dissociation constant (Ki) were calculated from the Cheng Prusoff equation (Ki = IG50/(1+(L/KD))), where the concentration of free radioligand L is approximated to the concentration of added ^125I-NKB in the assay (app 0,02 nM).
The KD of ^125I-NKB was determined to be 0,7 nM from three independent saturation assays each performed with duplicate determinations. Bmax was app 2 pmol/mg.

human NK3 receptor [2] = biological target: T1, human NK3 receptor; assay: NK3 receptor efficacy and potency assay (FLIPR Calcium 4 assay, BHK cells; agonist and antagonist mode versus NKB); format: cell-based; settings: read-out: Potency cIC50
Description: BHK cells stably expressing the human NK3 receptor were seeded in 100 µl media in black walled clear-base 96-wells plates (Costar) aiming at a confluency of 95-100% at the day of assay. The assay was performed according to the FLIPR Calcium 4 Assay kit (Molecular Devices). At the day of the assay, the media was removed and the cells were washed once with the HBSS buffer (Hanks BSS buffer, pH 7,4 containing 20 mM Hepes) before 100 µl of a solution of the calcium assay reagent dissolved in the HBSS buffer containing 2,5 mM probinicid was added to the cells. The plates were incubated for 60 min at 34°C, 10% CO2 before use in the FLIPR for examination of fluorescence.
For efficacy and potency evaluation of compounds, these were diluted in HBSS buffer prior to test. For test of agonist activity, 25 µl of the diluted compound solution was added and the plate was analyzed for 5 minutes in the FLIPR. […] The plates were subsequently analyzed for 5 minutes before the assay was terminated. The maximal increase in fluorescence over background following each ligand addition was determined.

| SMILES | Ki (human NK3 receptor [1]) [nM] | IC50 (human NK3 receptor [2]) [nM] |
| --- | --- | --- |
| Cc1c(C(=O)N[C@H](c2cccc(F)c2)C2CCC2)c2cccc(Cl)c2c(=O)n1-c1ccccc1 [Example 1bh, 8-Chloro-3-methyl-1-oxo-2-phenyl-1,2-dihydro-isoquinoline-4-carboxylic acid [(S)-cyclobutyl-(3-fluoro-phenyl)-methyl]-amide] | 21 | 81 |
| CC[C@H](NC(=O)c1c(CNCC2CC2)n(-c2ccccc2)c(=O)c2ccccc12)c1ccccc1 [Example 2e, 3-[(Cyclopropylmethyl-amino)-methyl]-1-oxo-2-phenyl-1,2-dihydro-isoquinoline-4-carboxylic acid ((S)-1-phenyl-propyl)-amide] | 330 | 470 |
| CCC(CO)NCc1c(C(=O)N[C@@H](CC)c2ccccc2)c2ccccc2c(=O)n1-c1ccccc1 (stereo partly drawn) [Example 2eg, 3-[(1-Hydroxymethyl-propylamino)-methyl]-1-oxo-2-phenyl-1,2-dihydro-isoquinoline-4-carboxylic acid ((S)-1-phenyl-propyl)-amide] | 240 | 610 |

Source: patent publication EP2150534B1, “ISOQUINOLINONE DERIVATIVES AS NK3 ANTAGONISTS” (H. Lundbeck A/S, priority 2007, dated 2008)
